# Experiments:
# [1] = target: T1, ERα (Homo sapiens, UniProt P03372); experiment: Estrogen receptor degradation activity (breast cancer cell ERα in cell western assay); assay type: cell-based; conditions: MCF7 cells, 0.3 μM, 4 hours, % of ERα levels decrease relative to fulvestrant
# T1 construct: host or cells: MCF7
# T1 sequence (P03372 1-595): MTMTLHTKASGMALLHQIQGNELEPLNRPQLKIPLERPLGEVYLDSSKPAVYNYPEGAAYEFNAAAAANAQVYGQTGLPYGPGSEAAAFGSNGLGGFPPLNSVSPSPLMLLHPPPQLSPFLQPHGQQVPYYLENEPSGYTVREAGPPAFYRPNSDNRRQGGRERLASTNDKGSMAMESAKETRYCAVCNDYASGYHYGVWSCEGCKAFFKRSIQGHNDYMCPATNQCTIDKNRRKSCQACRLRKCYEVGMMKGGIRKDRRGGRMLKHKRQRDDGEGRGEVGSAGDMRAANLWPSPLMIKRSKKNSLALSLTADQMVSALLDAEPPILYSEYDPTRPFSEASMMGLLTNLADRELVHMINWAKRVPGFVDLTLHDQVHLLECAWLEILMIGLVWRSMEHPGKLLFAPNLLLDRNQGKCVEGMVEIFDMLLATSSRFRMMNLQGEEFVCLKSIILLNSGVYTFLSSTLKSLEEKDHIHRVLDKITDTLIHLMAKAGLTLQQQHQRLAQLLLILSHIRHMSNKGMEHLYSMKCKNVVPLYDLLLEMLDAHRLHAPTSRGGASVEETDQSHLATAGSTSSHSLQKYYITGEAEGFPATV
# Outline: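 MCF7 cells in phenol red-free MEM alpha with 5% charcoal-stripped FBS were exposed for 4 h to 9-point 1:5 dilutions (0.3–0.0000018 μM final). In-cell western: anti-ERα immunofluorescence normalized to Syto-64 DNA stain, scaled between DMSO and 0.1 μM fulvestrant; IC50 as 50% ERα degradation, in nM.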
# [2] = test system: CYP3A4; experiment: CYP3A4 induction potential for ADME profile evaluation (CYP3A4 mRNA by RT-PCR in primary human hepatocytes); assay type: in vitro ADME; conditions: for CYP3A4 induction Emax (%): approximately 48 hours, 0.3-10 μM, relative to 10 μM rifampicin
# Description: Such test is based, for example, on the quantification of CYP3A4 mRNA induction performed by RT-PCR analysis. Said % Emax may be calculated as detailed in the illustrative part under the following formula:
# [formula] • ECompound: relative fold mRNA expression following treatment with test compound, • EPositive control: relative fold mRNA expression following reference inducer i.e., 10 μM rifampicin, • EVehicle control: relative fold mRNA expression following vehicle treatment i.e., 0.1% DMSO, and • E is the efficiency of the quantitative PCR.
# Said test evaluates the potential induction effect of the tested compounds on CYP3A4 gene expression in primary cultures of human hepatocytes from one or two donors with established concentration-dependent response to the reference inducer, rifampicin.
# Before seeding, cell viability was estimated using the Trypan blue dye exclusion test. Hepatocytes were seeded on collagen I-coated 96-well plates at a density of 70 000 cells/well in 100 μL of plating medium for at least 4 hours under a humidified atmosphere of CO2/air (5%/95%), at 37° C. After the cell attachment period, the plating medium was removed, and the hepatocytes were treated daily for 2 consecutive days (approximately 48 hours), with 100 μL per well of fresh culture medium containing either the vehicle control (0.1% DMSO) or the investigated compounds at four concentrations 0.3, 1, 3 and 10 μM, or rifampicin, the reference inducer at 10 μM. All incubations were performed in duplicates.
# Ten mM stock solutions of the different compounds were diluted to obtain 0.3, 1 and 3 mM daughter solutions. The day of the experiment, stock solutions were diluted 1000-fold in the incubation/culture medium to achieve final concentrations of 0.3, 1, 3 and 10 μM.
# After the 48-hour incubation period with the test compounds, the cell culture medium was removed, and the cells were lysed to release the RNA for CYP3A4 gene expression assessment. Quantification of CYP3A4 mRNA induction was performed by RT-PCR analysis.
# Total RNA was extracted from hepatocytes using the King Fisher™ Flex Purification System with the MagMAX mirVana Total RNA Isolation kit (Thermo Fisher Scientific, USA). RNA was quantified by fluorimetry using the Quantifluor RNA System (Promega, USA) and cDNAs were synthesized from […] total RNA using the iScript Reverse Transcription Supermix for RT-qPCR from Biorad (France) at 42° C. for 30 min. cDNA samples were then diluted in water (1:5) and 5 μL of each sample was used for real-time PCR amplification by using the SYBR Green kit from Biorad (France). The following program was used: a denaturation step at 95° C. for 30 sec, and 40 cycles of PCR (denaturation, 95° C., 10 sec and annealing and extension, 58° C., 1 min). In all cases, the quality of the PCR product was assessed by monitoring a fusion step at the end of the run. Human forward and reverse primer sequences used were: 5′-CCT-GGC-ACC-CAG-CAC-AAT-3′ and 5′-GGG-CCG GAC-TCG-TCA-TAC-3′ for actin, 5′-CAC-AAA-CG-GAG-GCC-TTT-TG-3′ and 5′-ATC-CAT-GCT-GTA-GGC-CCC-AA-3′ for CYP3A4.
# Cq (quantification cycle) values were determined using a multi-variable, non-linear regression model to individual well traces and then using this model an optimal Cq value was computed. Cq values are inversely proportional to the amount of target nucleic acid in the sample (i.e., lowest Cq level corresponds to the greatest amount of target nucleic acid in the sample). Cq of reference gene (in this study human actin) was also used as positive control of quantitative PCR.
# The extent of induction or % of Emax, resulting from treatment with test compounds was calculated under the following formula: […]
% Degradation At 0.3 μM [1],CYP3A4 induction Emax (%) [2],CYP3A4 induction (in words) ([2]; rating based on % Emax relative to rifampicin),SMILES
85%,8%,–,"CC1(C)CCC(C2=C(c3ccc(CC4CCN(CCCF)C4)cc3)c3ccc(C(=O)O)cc3CCC2)CC1.Cl (single isomer, unassigned; isomer 1) [Compound 3, 8-(4,4-dimethylcyclohexyl)-9-(4-((1-(3-fluoropropyl)pyrrolidin-3-yl)methyl)phenyl)-6,7-dihydro-5H-benzo[7]annulene-3-carboxylic acid, Isomer 1]"
85%,7%,no CYP3A4 induction,"O=C(O)c1ccc2c(c1)CCCC(c1ccc(Cl)cc1Cl)=C2c1ccc(C[C@H]2CCN(CCCF)C2)cc1 [Compound 1, 8-(2,4-dichlorophenyl)-9-(4-((1-(3-fluoropropyl)pyrrolidin-3-yl)methyl)phenyl)-6,7-dihydro-5H-benzo[7]annulene-3-carboxylic acid, (S) Isomer]"
90%,11%,–,"CC1(C)CC=C(C2=C(c3ccc(CC4CCN(CCCF)C4)cc3)c3ccc(C(=O)O)cc3CCC2)CC1.Cl (single isomer, unassigned; isomer 1) [Compound 11, 8-(4,4-dimethylcyclohex-1-en-1-yl)-9-(4-((1-(3-fluoropropyl)pyrrolidin-3-yl)methyl)phenyl)-6,7-dihydro-5H-benzo[7]annulene-3-carboxylic acid hydrochloride, Isomer 1]"

# Source: patent US20250248970A1, “NOVEL SUBSTITUTED FLUORINATED N-PROPYL-PYRROLIDINE COMPOUNDS, PROCESSES FOR THEIR PREPARATION AND THERAPEUTIC USES THEREOF” (SANOFI, priority 2022, published 2025)
